Values quoted from earlier work, collected in patent US20090176744A1, “Deuterated fingolimod” (CoNCERT Pharmaceuticals, Inc., priority 2007, published 2009).

Tests used:
[1] = general finding of cited clinical studies (Kahan 2003; Budde 2002; Ferguson 2003)
[2] = renal transplant patients; reversible upon cessation of treatment (Tedesco-Silva 2004)

Structure (SMILES): CCCCCCCCc1ccc(CCC(N)(CO)CO)cc1.Cl [fingolimod, 2-amino-2-[2-(4-octylphenyl)ethyl]-1,3-propanediol hydrochloride]
- safety and tolerability [1]: safe and well-tolerated
- heart rate [2]: mild and transient reduction in heart rate
